System: IgA nephropathy model mice
Experiment: Efficacy of atrasentan, methylprednisolone and combinations in IgA nephropathy model mice (CFA-stimulated humanized IGHA1 mice); blood hIgA1, IgG, IgM
Assay type: in vivo
Conditions: IgAN mice; for IgG, Difference between pre-treatment and post-treatment value (post-treatment minus pre-treatment), Mean (SD) / IgG, Difference between pre-treatment and post-treatment value (post-treatment minus pre-treatment), Median (Q1 - Q3) / IgM, Difference between pre-treatment and post-treatment value (post-treatment minus pre-treatment), Mean (SD) / IgM, Difference between pre-treatment and post-treatment value (post-treatment minus pre-treatment), Median (Q1 - Q3) / hIgA1, Difference between pre-treatment and post-treatment value (post-treatment minus pre-treatment), Mean (SD) / hIgA1, Difference between pre-treatment and post-treatment value (post-treatment minus pre-treatment), Median (Q1 - Q3): 30 days gavage; for IgG, After treatment, Mean (SD) / IgG, After treatment, Median (Q1 - Q3) / IgM, After treatment, Mean (SD) / IgM, After treatment, Median (Q1 -Q3) / hIgA1, After treatment, Mean (SD) / hIgA1, After treatment, Median (Q1 - Q3): after 30 days gavage, atrasentan 15 mg/kg/day, methylprednisolone 5 mg/kg/day, dapagliflozin 1 mg/kg/day; for IgG, Before treatment, Mean (SD) / IgG, Before treatment, Median (Q1 - Q3) / IgM, Before treatment, Mean (SD) / IgM, Before treatment, Median (Q1 - Q3) / hIgA1, Before treatment, Mean (SD) / hIgA1, Before treatment, Median (Q1 - Q3): baseline before dosing
From the text: The present invention will be further described below through examples, but the examples are not meant to limit the scope of the present invention in any way. For the measurement methods of various parameters in the examples, reference should be made to Wan F, Wang H, Wang M, Lü J, Zhao M, Zhang H. Sustained release of Lactobacillus casei cell wall extract can induce a continuous and stable IgA deposition model. […] Chimeric Fusion between Clostridium Ramosum IgA Protease and IgG Fc Provides Long-Lasting Clearance of IgA Deposits in Mouse Models of IgA Nephropathy. […] The above-mentioned documents are incorporated into this application in their entirety. […] Complete Freunds adjuvant (CFA) and phosphate buffer solution (PBS) were mixed thoroughly and emulsified at a ratio of 1:1 to obtain a CFA injection that was intraperitoneally injected into 8-week-old humanized IGHA1 mice constructed in step 1. Four times the mouse body weight (4w μl) was injected every 2 weeks, administering a total of 6 injections over a time period of about 2.5 months. • 2. In this experiment, the 8-week-old humanized IgA1 mice underwent an induction period of 2 to 5 months after the final injection of CFA. Table 1 […] Each group received intraperitoneal injections of CFA injection to create a model. Upon model completion, atrasentan, methylprednisolone and/or dapagliflozin were administered as outlined below. The control group was administered an equal amount of solvent (an aqueous solution of 0.5% (w/v) methylcellulose and 0.5% (v/v) Tween 80) by gavage for 30 days. Dosing method: atrasentan (15 mg/kg/day), methylprednisolone (5 mg/kg/day), dapagliflozin (1 mg/kg/day) were administered by gavage every morning for 30 days. When co-administered, the required medicines were mixed together in the appropriate proportion (the dose of each medicine was calculated according to mouse body weight) before administration by gavage. […] Prior to dosing, once every 2 weeks during the dosing period, and on day 30 of dosing, urine creatinine, urine protein level, and albumin to creatinine ratio (ACR) were measured, and the mice checked for the presence of haematuria. Prior to dosing and on day 30 of dosing, renal tissue pathology was scored according to the Oxford classification system, IgA and C3 deposition in renal tissue was measured by immunofluorescence assay, and mice in each group were examined for cardiac pathology.

Row | Compound | IgG, Difference between pre-treatment and post-treatment value (post-treatment minus pre-treatment), Mean (SD) | IgG, Difference between pre-treatment and post-treatment value (post-treatment minus pre-treatment), Median (Q1 - Q3) | IgM, Difference between pre-treatment and post-treatment value (post-treatment minus pre-treatment), Mean (SD) | IgM, Difference between pre-treatment and post-treatment value (post-treatment minus pre-treatment), Median (Q1 - Q3) | hIgA1, Difference between pre-treatment and post-treatment value (post-treatment minus pre-treatment), Mean (SD) | hIgA1, Difference between pre-treatment and post-treatment value (post-treatment minus pre-treatment), Median (Q1 - Q3) | IgG, After treatment, Mean (SD) | IgG, After treatment, Median (Q1 - Q3) | IgM, After treatment, Mean (SD) | IgM, After treatment, Median (Q1 -Q3) | hIgA1, After treatment, Mean (SD) | hIgA1, After treatment, Median (Q1 - Q3) | IgG, Before treatment, Mean (SD) | IgG, Before treatment, Median (Q1 - Q3) | IgM, Before treatment, Mean (SD) | IgM, Before treatment, Median (Q1 - Q3) | hIgA1, Before treatment, Mean (SD) | hIgA1, Before treatment, Median (Q1 - Q3)
1 | C[C@H]1C[C@@H]2[C@H]([C@@H](O)C[C@@]3(C)[C@H]2CC[C@]3(O)C(=O)CO)[C@@]2(C)C=CC(=O)C=C12 [Methylprednisolone (MP), methylprednisolone] | -0.10(0.20) | -0.09(-0.28 - 0.39) | -0.04(0.08) | -0.05(-0.12 - 0.13) | -0.03( 0.70) | -0.11 (-1.97 - 2.12) | 4.75(0.81) | 3.56(3.22 - 7.06) | 1.51(0.33) | 1.08(0.80 - 2.34) | 6.63(0 .79) | 6.23( 4.78 - 8.97) | 4.85(0.94) | 3.75(3.04 - 7.83) | 1.55(0.28) | 1.31(0.90 - 2.22) | 6.66( 0.37) | 6.69(6. 12 - 7.53)
2 | CCCCN(CCCC)C(=O)CN1C[C@H](c2ccc3c(c2)OCO3)[C@@H](C(=O)O)[C@@H]1c1ccc(OC)cc1 [Atrasentan (A), atrasentan] | 1.69(0.35) | 1.58(1.11 - 2.23) | 0.54(0.23) | 0.38(0.07 - 0.69) | 5.95 (1.50) | 4.96 (3.03 - 8.99) | 5.04(0.10) | 5.06(4.74 - 5.25) | 2.08(0.45) | 1.72(1.28 - 2.26) | 15.99( 3.40) | 12.99 (7.93 - 23.80) | 3.35(0.36) | 3.32(2.90 - 4.14) | 1.55(0.25) | 1.31(1.02 - 1.97) | 10.04 (2.46) | 7.88(4. 24 - 16.39)

Reference: patent publication EP4616867A1, “COMBINATION OF ENDOTHELIN RECEPTOR ANTAGONIST AND GLUCOCORTICOID FOR TREATING IGA NEPHROPATHY” (Sanreno Therapeutics (Shanghai) Limited, priority 2022, dated 2024)
